ChEMBL document CHEMBL1201862, “PubChem BioAssay data set” (2004)
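Five compound concentrations were applied to cells in 96-well plates for 48 hours; endpoints were derived by simple linear interpolation of the resulting dose-response curve. GI50 marks 50% less growth.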 Active and inactive are the calls of the source. No stated cut-off is given here; in the data, active = GI50 up to about 1.1 µM and inactive = higher.

Key:
Test in all cases: DTP human tumour cell line panel, 48 h
BT-549 = test system: BT-549
Hs-578T = test system: Hs-578T
MDA-MB-231 = test system: MDA-MB-231
MDA-MB-435 = test system: MDA-MB-435
MDA-N = test system: MDA-N
PC-3 = test system: PC-3
T47D = test system: T47D
HOP-18 = test system: HOP-18
786-0 = test system: 786-0

Measured: GI50

CC(NC(=O)C(NC(=O)CNC(=O)OC(C)(C)C)C(C)C)C(=O)Oc1c(Cl)c(Cl)c(Cl)c(Cl)c1Cl (stereo unspecified)
inactive: BT-549 23.8 µM | Hs-578T 20.1 µM | MDA-MB-231 22.6 µM | MDA-MB-435 23.4 µM | MDA-N 25.1 µM | PC-3 16 µM | T47D 23.1 µM

CC1(CO)C(O)CCC2(C)C1C(O)CC1CC3CC12CCC3(O)CO (stereo unspecified)
inactive: HOP-18 > 225 µM

Cc1cc(OCC(O)CO)ccc1Cl (stereo unspecified)
inactive: HOP-18 > 100 µM

CC/C(CC(=O)CCC(=O)Nc1ccc(C)c(C)c1)=N\NC(=O)c1cc2ccccc2cc1O
inactive: HOP-18 15.2 µM

COc1ccc(NC(=O)/C(=C/c2ccc(N(CCC#N)CCC#N)cc2)NC(=O)c2cc([N+](=O)[O-])ccc2Cl)cc1
inactive: HOP-18 > 100 µM

NC(CSC(=O)c1ccccc1)C(=O)O (stereo unspecified)
inactive: 786-0 > 100 µM | BT-549 > 100 µM | Hs-578T > 100 µM | MDA-MB-231 > 100 µM | MDA-MB-435 > 100 µM | MDA-N > 100 µM | PC-3 > 100 µM

CC#CC#C/C=C1\C=CC2(OC=CC2OC(C)=O)O1 (stereo unspecified)
inactive: BT-549 34.7 µM | Hs-578T 27.4 µM | MDA-MB-231 17.8 µM | MDA-MB-435 29.4 µM | MDA-N 15.8 µM | PC-3 28.2 µM | T47D 24.1 µM

O=C1C=C2SC3C[C@@]24CC1(O)[N+]1=c2c4c(c(O)c4c2=C(C=N4)CC1)N3
inactive: HOP-18 2.43 µM

COc1ccc(-c2cc(O)c3cc(C)cnc3n2)cc1
inactive: BT-549 2 µM | Hs-578T 4.66 µM | MDA-MB-231 16.2 µM | MDA-MB-435 1.85 µM | T47D 5.38 µM
